Here are results for 8 compounds from patent US20240189440A1, “TLR7 AND TLR8 AGONISTS FOR THE TREATMENT OF CANCER AND/OR INFECTIOUS DISEASES” (priority 2021, published 2024).

The subject of one series is hepatitis C virus. The following applies: treatment of hepatitis C virus; Fidock et al. 2011; cited from earlier work.
For series [1] the following is noted: patients with mild allergic asthma; Tsitoura et al. 2015; cited from earlier work.
Series [2] has as its system HBV infected primary human hepatocytes. To be noted: Tsai et al. 2017, Bam et al. 2016; cited from earlier work.
Series [3] deals with NFκB pathway in Ramos-blue cells. Nature of the series: Ramos-Blue NFκB/SEAP reporter assay with cysteine-capped linker-payloads, 72 h (Example 15). The format is cell-based. To be noted: cysteine-capped, 72 hours, SEAP at 630 nm, read-out: Relative Activation; for activation at 5 µM: Linker-Payload Dose 5 uM; for activation at 50 µM: Linker-Payload Dose 50 uM. As for the experimental part:
A 50 mM cysteine stock was prepared in 0.1 M PBS pH 7.4. 10 equivalents of 50 mM cysteine were added to 1 equivalent of linker-payload to create a 2.50 mM solution. The reaction was vortexed and sat at room temperature for an hour to allow for the Michael addition to occur. After an hour, an aliquot was taken and run via UPLC-MS to ensure for the complete Michael reaction. The reaction was diluted to 1 mM using 0.1M PBS pH 7.4. The 1 mM solution was diluted to 500 uM and 50 uM in a 96-well plate to afford a final concentration of 50 uM and 5 uM in the cell suspension. The cell density and viability were calculated using the Countess Cell Counter and the proper volume of cells was removed in order to have a seeding density of 0.2×10^6 cells/mL per well. 135 uL of cell suspension was added to each well in a 96-well plate along with 15 uL of the corresponding linker-payload treatment. Each concentration was run in triplicate and incubated at 37° C. with 5% CO2 for 72 hours.
Invivogen's QUANTI-Blue™ solution was prepared by adding 200 uL of QB reagent and 200 uL of QB buffer to 19.6 mL of water. The resulting solution was vortexed and incubated at room temperature for ten minutes. The 96-well plate was centrifuged at 1990 rpm for ten minutes. Then, 40 uL of cell supernatant was added to 160 uL of the prepared QUANTI-Blue™ solution and incubated at 37° C. for 24 hours. The plate was read using the Molecular Devices i3x plate reader at a wavelength of 630 nm to determine the amount of SEAP production.
For orientation: In a reporter assay the amount or activity of a reporter protein is the signal.

Each structure is given as a SMILES string.

In the case of `CCc1nc2c(N)nc3ccccc3c2n1CCCCNS(C)(=O)=O` [PF-4878691], the Therapeutic index entry in the series on hepatitis C virus is reported as “low therapeutic index”.
Consider `CCC[C@H](C)Oc1nc(N)c2[nH]c(=O)n(CCCCCN3CCCCC3)c2n1` [GSK-2245035], for which the “Efficacy on allergen-induced asthmatic response” value in series [1] is on record as “lack efficacy”.
With `CCCCOc1nc(N)c2c(n1)N(Cc1cccc(CN3CCCC3)c1)CC(=O)N2` [GS-9620], the Antiviral activity result in series [2] is listed as “no antiviral activity”.
Consider `CCCCc1nc2c(N)nc3ccccc3c2n1Cc1ccc(NC(=O)OCc2ccc(NC(=O)C(CCCNC(N)=O)NC(=O)C(NC(=O)CCCCCN3C(=O)C=CC3=O)C(C)C)cc2)cc1` (stereo not shown) [Mc_ValCitPABC_E104, 4-(2-(2-(6-(2,5-dioxo-2,5-dihydro-1H-pyrrol-1-yl)hexanamido)-3-methylbutanamido)-5-ureidopentanamido)benzyl 4-((4-amino-2-butyl-1H-imidazo[4,5-c]quinolin-1-yl)methyl)phenylcarbamate], for which, in series [3], the activation at 5 µM turned out to be 12.7% and the activation at 50 µM is -19.2%.
The matching figures for `CCCCc1nc2c(N)nc3ccccc3c2n1Cc1ccc(NC(=O)CCCCCN2C(=O)C=CC2=O)cc1` [Mc_E104, N-(4-((4-amino-2-butyl-1H-imidazo[4,5-c]quinolin-1-yl)methyl)phenyl)-6-(2,5-dioxo-2,5-dihydro-1H-pyrrol-1-yl)hexanamide]: 704% and -52%.
`CCOCc1nc2c(NC(=O)OCc3ccc(NC(=O)C(CCCNC(N)=O)NC(=O)C(NC(=O)CCCCCN4C(=O)C=CC4=O)C(C)C)cc3)nc3ccccc3c2n1CC(C)(C)O` (stereo not shown) [Mc_ValCitPABC_Resiquimod, 4-(2-(2-(6-(2,5-Dioxo-2,5-dihydro-1H-pyrrol-1-yl)hexanamido)-3-methylbutanamido)-5-ureidopentanamido)benzyl 2-(ethoxymethyl)-1-(2-hydroxy-2-methylpropyl)-1H-imidazo[4,5-c]quinolin-4-ylcarbamate]: in series [3], the activation at 5 µM was 18.6% and the activation at 50 µM was -20.8%.
Consider `CCCCc1nc2c(N)nc3ccccc3c2n1Cc1ccc(CNC(=O)CCCCCN2C(=O)C=CC2=O)cc1` [Mc_E66, N-(4-((4-amino-2-butyl-1H-imidazo[4,5-c]quinolin-1-yl)methyl)benzyl)-6-(2,5-dioxo-2,5-dihydro-1H-pyrrol-1-yl)hexanamide], for which, in series [3], the activation at 5 µM came out at 119% and the activation at 50 µM is -52.3%.
Turning to `CCCCc1nc2c(N)nc3ccccc3c2n1Cc1ccc(CNC(=O)C(CCCNC(N)=O)NC(=O)C(NC(=O)CCCCCN2C(=O)C=CC2=O)C(C)C)cc1` (stereo not shown) [Mc_ValCit_E66, N-(1-(1-(4-((4-amino-2-butyl-1H-imidazo[4,5-c]quinolin-1-yl)methyl)benzylamino)-1-oxo-5-ureidopentan-2-ylamino)-3-methyl-1-oxobutan-2-yl)-6-(2,5-dioxo-2,5-dihydro-1H-pyrrol-1-yl)hexanamide], in series [3], the activation at 5 µM stood at 125% and the activation at 50 µM is -51.4%.
